pIC50: −log10 of the molar value.
Columns and labels:
Human recombinant PDE4 = Human recombinant PDE4 (Homo sapiens (Human), UniProt Q08499); assay: PDE4 assay (SPA, cAMP cleavage); assay type: biochemical; settings: human recombinant PDE4, 1 hour incubation, cAMP 1×10^-5M
Method: At the end of the incubation, the cleavage of the substrate was evaluated by the binding of the AMP product to SPA beads, which generate chemo luminescence when bound to the radioactive tracer. The AMP product inhibited the binding of the radioactive tracer to the beads, and the luminescent signal was competed.

[1] = test system: Human peripheral blood mononuclear cells (PBMC); assay: TNFα release in LPS-stimulated PBMC; assay type: cell-based; settings: 30 minutes pre-incubation, lipopolysaccharide stimulation 18 hours, read-out: TNFa IC50
Method: Human peripheral blood mononuclear cells (PBMC) were isolated from buffy coats. […] The PBMC were suspended in RPMI1640 with 2% foetal calf serum (FCS), pen/strep and 2 mM L-glutamine at a concentration of 5×105 c/ml. The cells were pre-incubated for 30 minutes with the test compounds in 96 well tissue culture plates and stimulated for 18 hours with lipopolysaccharide […] (Sigma). The level of TNFα was measured in the culture supernatant by enzyme immuno assays using primary and secondary biotinylated antibodies from R&D systems.

Human recombinant PDE4, sequence (Q08499 other isoform, or with tags, fused parts or gaps): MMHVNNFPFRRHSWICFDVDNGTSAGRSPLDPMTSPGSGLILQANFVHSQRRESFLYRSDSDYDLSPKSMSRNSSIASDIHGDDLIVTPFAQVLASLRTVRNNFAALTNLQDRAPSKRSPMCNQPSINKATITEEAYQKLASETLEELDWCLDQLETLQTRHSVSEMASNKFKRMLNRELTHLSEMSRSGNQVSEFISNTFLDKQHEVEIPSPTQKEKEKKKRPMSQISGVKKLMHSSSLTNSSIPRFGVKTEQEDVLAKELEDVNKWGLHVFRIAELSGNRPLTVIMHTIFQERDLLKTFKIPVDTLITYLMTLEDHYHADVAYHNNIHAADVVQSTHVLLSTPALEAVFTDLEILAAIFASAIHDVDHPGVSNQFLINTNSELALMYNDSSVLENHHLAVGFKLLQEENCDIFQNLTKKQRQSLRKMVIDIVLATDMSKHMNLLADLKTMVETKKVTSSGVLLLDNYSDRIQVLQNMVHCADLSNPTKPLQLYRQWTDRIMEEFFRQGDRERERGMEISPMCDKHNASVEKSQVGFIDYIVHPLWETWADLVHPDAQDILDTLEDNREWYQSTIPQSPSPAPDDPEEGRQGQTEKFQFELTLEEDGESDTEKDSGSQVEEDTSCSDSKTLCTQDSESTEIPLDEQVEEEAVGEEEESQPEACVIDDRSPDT

| Compound | pIC50 (Human recombinant PDE4) | pIC50 [1] |
| --- | --- | --- |
| COc1ccc(C(=O)Cc2c(Cl)cncc2Cl)n2nc(C3CC3)nc12 [Compound 101, 1-(2-cyclopropyl-8-methoxy-[1,2,4]triazolo[1,5-a]pyridin-5-yl)-2-(3,5-dichloro-pyridin-4-yl)-ethanone] | 8.70 | 8.52 |
| COc1ccc(C(=O)Cc2c(Cl)cncc2Cl)n2ncnc12 [Compound 102, 2-(3,5-Dichloro-pyridin-4-yl)-1-(8-methoxy-[1,2,4]triazolo[1,5-a]pyridin-5-yl)-ethanone] | 6.87 | 6.54 |
| COc1ccc(C(=O)Cc2c(Cl)cncc2Cl)n2nc(COCc3ccccc3)nc12 [Compound 104, 1-(2-Benzyloxymethyl-8-methoxy-[1,2,4]triazolo[1,5-a]pyridin-5-yl)-2-(3,5-dichloro-pyridin-4-yl)-ethanone] | 7.59 | 7.18 |
| COc1ccc(C(=O)Cc2cnccn2)n2nc(C3(CO)CC3)nc12 [Compound 120, 1-[2-(1-Hydroxymethyl-cyclopropyl)-8-methoxy-[1,2,4]triazolo[1,5-a]pyridin-5-yl]-2-pyrazin-2-yl-ethanone] | 5.60 | 5.66 |
| COc1ccc(C(=O)Cc2ccnc3ccccc23)n2nc(C3(CO)CC3)nc12 [Compound 121, 1-[2-(1-Hydroxymethyl-cyclopropyl)-8-methoxy-[1,2,4]triazolo[1,5-a]pyridin-5-yl]-2-quinolin-4-yl-ethanone] | 5.44 | 5.68 |
| COc1ccc(C(=O)Cc2ccncc2)n2nc(C3(CO)CC3)nc12 [Compound 122, 1-[2-(1-Hydroxymethyl-cyclopropyl)-8-methoxy-[1,2,4]triazolo[1,5-a]pyridin-5-yl]-2-pyridin-4-yl-ethanone] | 6.58 | 6.86 |
| COc1ccc(C(=O)Cc2ccncc2Br)n2nc(C3(CO)CC3)nc12 [Compound 124, 2-(3-Bromo-pyridin-4-yl)-1-[2-(1-hydroxymethyl-cyclopropyl)-8-methoxy-[1,2,4]triazolo[1,5-a]pyridin-5-yl]-ethanone] | 7.28 | 6.94 |
| COc1ccc(C(=O)Cc2ccnc(C#N)c2)n2nc(C3(CO)CC3)nc12 [Compound 125, 4-{2-[2-(1-Hydroxymethyl-cyclopropyl)-8-methoxy-[1,2,4]triazolo[1,5-a]pyridin-5-yl]-2-oxo-ethyl}-pyridine-2-carbonitrile] | 5.51 | 5.32 |
| COc1ccc(C(=O)Cc2nccnc2Cl)n2nc(C3(CO)CC3)nc12 [Compound 126, 2-(3-Chloro-pyrazin-2-yl)-1-[2-(1-hydroxymethyl-cyclopropyl)-8-methoxy-[1,2,4]triazolo[1,5-a]pyridin-5-yl]-ethanone] | 6.26 | 6.15 |
| COc1ccc(C(=O)Cc2ccccc2Cl)n2nc(C3CC3)nc12 [Compound 127, 2-(2-Chloro-phenyl)-1-(2-cyclopropyl-8-methoxy-[1,2,4]triazolo[1,5-a]pyridin-5-yl)-ethanone] |  | 6.98 |
| COc1ccc(C(=O)Cc2c(Cl)c[n+]([O-])cc2Cl)n2nc(C3CC3)nc12 [Compound 128, 1-(2-Cyclopropyl-8-methoxy-[1,2,4]triazolo[1,5-a]pyridin-5-yl)-2-(3,5-dichloro-1-oxy-pyridin-4-yl)-ethanone] |  | 8.30 |

Second part, led by results:

| pIC50 (Human recombinant PDE4) | Compound | pIC50 [1] |
| --- | --- | --- |
| 8.15 | COc1ccc(C(=O)Cc2c(Cl)cncc2Cl)n2nc(-c3ccco3)nc12 [Compound 103, 2-(3,5-Dichloro-pyridin-4-yl)-1-(2-furan-2-yl-8-methoxy-[1,2,4]triazolo[1,5-a]pyridin-5-yl)-ethanone] | 7.57 |
| 6.52 | COc1ccc(C(=O)Cc2c(Cl)cncc2Cl)n2nc(CO)nc12 [Compound 105, 2-(3,5-Dichloro-pyridin-4-yl)-1-(2-hydroxymethyl-8-methoxy-[1,2,4]triazolo[1,5-a]pyridin-5-yl)-ethanone] | 6.22 |
| 8.40 | COc1ccc(C(=O)Cc2c(Cl)cncc2Cl)n2nc(C3(CO)CC3)nc12 [Compound 106, 2-(3,5-Dichloro-pyridin-4-yl)-1-[2-(1-hydroxymethyl-cyclopropyl)-8-methoxy-[1,2,4]triazolo[1,5-a]pyridin-5-yl]-ethanone] | 8.30 |
| 7.35 | COc1ccc(C(=O)Cc2c(Cl)cncc2Cl)n2nc(C)nc12 [Compound 107, 2-(3,5-Dichloro-pyridin-4-yl)-1-(8-methoxy-2-methyl-[1,2,4]triazolo[1,5-a]pyridin-5-yl)-ethanone] | 6.93 |
| 7.26 | COc1ccc(C(=O)Cc2c(Cl)cncc2Cl)n2nc(C3(C(=O)O)CC3)nc12 [Compound 108, 1-{5-[2-(3,5-Dichloro-pyridin-4-yl)-acetyl]-8-methoxy-[1,2,4]triazolo[1,5-a]pyridin-2-yl}-cyclopropanecarboxylic acid] |  |
| 7.62 | COc1ccc(C(=O)Cc2c(Cl)cncc2Cl)n2nc(C3(C(=O)N4CCOCC4)CC3)nc12 [Compound 109, 2-(3,5-Dichloro-pyridin-4-yl)-1-{8-methoxy-2-[1-(morpholine-4-carbonyl)-cyclopropyl]-[1,2,4]triazolo[1,5-a]pyridin-5-yl}-ethanone] | 7.54 |
| 9.30 | COc1ccc(C(=O)Cc2c(Cl)cncc2Cl)n2nc(C3(C(=O)NCc4ccccc4)CC3)nc12 [Compound 110, 1-{5-[2-(3,5-Dichloro-pyridin-4-yl)-acetyl]-8-methoxy-[1,2,4]triazolo[1,5-a]pyridin-2-yl}-cyclopropanecarboxylic acid benzylamide] | 9.15 |
| 9.00 | COc1ccc(C(=O)Cc2c(Cl)cncc2Cl)n2nc(C3(C(=O)NCc4ccccn4)CC3)nc12 [Compound 112, 1-{5-[2-(3,5-Dichloro-pyridin-4-yl)-acetyl]-8-methoxy-[1,2,4]triazolo[1,5-a]pyridin-2-yl}-cyclopropanecarboxylic acid (pyridin-2-ylmethyl)-amide] | 9.22 |
| 9.15 | COc1ccc(C(=O)Cc2c(Cl)cncc2Cl)n2nc(C3(C(=O)NCc4cccnc4)CC3)nc12 [Compound 113, 1-{5-[2-(3,5-Dichloro-pyridin-4-yl)-acetyl]-8-methoxy-[1,2,4]triazolo[1,5-a]pyridin-2-yl}-cyclopropanecarboxylic acid (pyridin-3-ylmethyl)-amide] | 9.30 |
| 9.40 | COc1ccc(C(=O)Cc2c(Cl)cncc2Cl)n2nc(C3(C(=O)NCc4ccncc4)CC3)nc12 [Compound 114, 1-{5-[2-(3,5-Dichloro-pyridin-4-yl)-acetyl]-8-methoxy-[1,2,4]triazolo[1,5-a]pyridin-2-yl}-cyclopropanecarboxylic acid (pyridin-4-ylmethyl)-amide] | 9.70 |
| 9.70 | COc1ccc(C(=O)Cc2c(Cl)cncc2Cl)n2nc(C3(C(=O)NCC(C)(C)C)CC3)nc12 [Compound 115, 1-{5-[2-(3,5-Dichloro-pyridin-4-yl)-acetyl]-8-methoxy-[1,2,4]triazolo[1,5-a]pyridin-2-yl}-cyclopropanecarboxylic acid (2,2-dimethyl-propyl)-amide] |  |
| 10.00 | COc1ccc(C(=O)Cc2c(Cl)cncc2Cl)n2nc(C3(C(=O)NC4CCCC4)CC3)nc12 [Compound 116, 1-{5-[2-(3,5-Dichloro-pyridin-4-yl)-acetyl]-8-methoxy-[1,2,4]triazolo[1,5-a]pyridin-2-yl}-cyclopropanecarboxylic acid cyclopentylamide] |  |
| 8.52 | COc1ccc(C(=O)Cc2c(Cl)cncc2Cl)n2nc(C3(C(N)=O)CC3)nc12 [Compound 118, 1-{5-[2-(3,5-Dichloro-pyridin-4-yl)-acetyl]-8-methoxy-[1,2,4]triazolo[1,5-a]pyridin-2-yl}-cyclopropanecarboxylic acid amide] | 8.70 |
| 8.10 | COc1ccc(C(=O)Cc2c(Cl)cncc2Cl)n2nc(C3(CNCc4ccccc4)CC3)nc12 [Compound 119, 1-{2-[1-(Benzylamino-methyl)-cyclopropyl]-8-methoxy-[1,2,4]triazolo[1,5-a]pyridin-5-yl}-2-(3,5-dichloro-pyridin-4-yl)-ethanone] | 7.89 |
| 7.17 | COc1ccc(C(=O)Cc2c(Br)cncc2Br)n2nc(C3(CO)CC3)nc12 [Compound 123, 2-(3,5-Dibromo-pyridin-4-yl)-1-[2-(1-hydroxymethyl-cyclopropyl)-8-methoxy-[1,2,4]triazolo[1,5-a]pyridin-5-yl]-ethanone] | 7.82 |

Source: patent publication US8829190B2, “Triazolopyridines as phosphodiesterase inhibitors for treatment of dermal diseases” (Leo Pharma A/S, priority 2007, dated 2014)
